The nature of data set [1]: Pharmacokinetics after oral and iv dosing to rats. The class given is in vivo, Sprague-Dawley rat. The note with it: rat. The procedure:
Appendix 2. Pharmaco kinetics an d P l a s ma Protein Binding […]
Pharma cokinetics. In vivo PK characteristics were determined using non- fasted Sprague-Dawle y rats (mal e, 200-300 g, 10- 16 weeks of age) with groups of three animals per route per compound. Soluble formulations were developed and verified b y HP LC/UV s o that compounds were dosed discretel y b y the iv (1 mg/kg, 1 mL/kg) and po (5 mg/kg, 5 mL/kg) routes. Blood samples were obtained at various times after dosing and plasma prepared for LC -MS-MS quantification of the test substance after inclusion of an intern al standard . PK p aramet ers were calculated usin g a non -compartmental model in WinNonlin v5.2.
Plasma Protein Binding Assay. PPB was determined with a Rapid Equilibrium Dialysis device using 8 kDa molecular weight cut-off inserts (Fisher Scientific UK Ltd, Leicest ershire, UK) as described b y the manufacturer. R at (Sprague Dawl e y strain) plasma EDTA K2 (mixed gender, pooled, SeraLab, West Sussex, UK) was thawed and centrifuged at 13,000 x g for 10 min to remove precipitates before being spiked with compounds (5 µM). The concentrations of compounds in the plasma and buffer chambers were determined b y LC -MS-MS (AB Sciex 3200 QTrap) anal ysis after 4 h incubation at 37 °C. Binding was calculated from the concentration percentage in both chambers as shown below. Assays were p erfo rmed in replicate and the data

In data set [2] the target is T1, Human recombinant dipeptidyl peptidase IV (Homo sapiens, UniProt P27487).
T1 construct: host or cells: insect Sf9 cells
Kind of data set: Protease counter-screening: Dipeptidyl Dipeptidase IV. The class given is biochemical. As to the method: (§1) Appendix 7. Protease Counter -Screening
(§2) Protease counter-screeni ng was performed using the methods described below. Initial screening was conducted in duplicate using a single test substance concentration of 10 µ M .
(§3) Additional assays were conducted in replicate for selected pairin gs of test s ubstance and enz yme in order to enable the determination of IC50 values using conventional procedures.
(§4) Determination of K i was made using the Batch K i program (Biokin Ltd, Pullman, WA) to derive values from the Morrison equation: […]
(§5) Where [E ] is the active enz yme concentration, Kiapp is the apparent inhibition const ant, v 0 is the control velocit y in the absence of inhibitors, vb is the background velocity, v is the initial reaction velocit y in the presence of inhibitor, and I is the inhibitor concentration.Thence:
Where [S ] is the substrate concentration and KM is the Michealis constant. […]
Test compound or vehicle was pre- incubated with 600 […]
The reaction was […]
initiated by addition of 1 µM N-CH3-SO2-D-FGR-pNA for another 120 min incubation period. […]
Factor Xa: Test compound or vehicle was pre -incubated for 15 min at 25 °C in modified 50 mM Tris-HCl buffer pH 7.6 containing 0.4 nM Factor Xa from human plasma. The reaction was initiated by addition of 0.3 mM N-a-Z-D-RGR-pNA for another 60 min incubation period. The amount of pNA form ed was measur ed at 405 nm. […]

Data set [3] has as its target T2, Human cathepsin E (Homo sapiens, UniProt P14091).
T2 construct: host or cells: NS0 murine myeloma cell line
Kind of data set: Protease counter-screening: Cathepsin E. The class given is biochemical. As to the method:
as §1, §2, §3, §4, §5
Where [S ] is the substrate concentration and KM is the Michealis constant.
Caspase 1: Activity against human recombinant caspase 1 expressed in E. coli was tested using Ac-YVAD- AMC as the substrate. Test compound or vehicle was pre- incubated with 600 […]
Cathep sin D: Tests were performed using enz ym e purified from human li ver. Test compound or vehicle was pre- incubated with 190 mU/mL enz yme in modified acetate buffer pH 4.0 for 15 min at 37 °C. […]
The amount of MCA-P LG formed was measured spectrofluorimetricall y at 340 nm/400 nm. […]

T2 sequence (P14091 54-396): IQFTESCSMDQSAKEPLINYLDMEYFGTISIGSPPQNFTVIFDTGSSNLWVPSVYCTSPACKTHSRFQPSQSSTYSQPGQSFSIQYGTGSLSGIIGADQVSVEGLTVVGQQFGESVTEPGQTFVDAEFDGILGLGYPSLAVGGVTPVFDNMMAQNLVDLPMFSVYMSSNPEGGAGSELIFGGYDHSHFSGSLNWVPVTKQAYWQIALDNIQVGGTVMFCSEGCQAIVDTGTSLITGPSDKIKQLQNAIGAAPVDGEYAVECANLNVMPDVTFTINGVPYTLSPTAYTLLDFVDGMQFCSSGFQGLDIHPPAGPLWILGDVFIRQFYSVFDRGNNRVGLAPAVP
T1 sequence (P27487 whole entry): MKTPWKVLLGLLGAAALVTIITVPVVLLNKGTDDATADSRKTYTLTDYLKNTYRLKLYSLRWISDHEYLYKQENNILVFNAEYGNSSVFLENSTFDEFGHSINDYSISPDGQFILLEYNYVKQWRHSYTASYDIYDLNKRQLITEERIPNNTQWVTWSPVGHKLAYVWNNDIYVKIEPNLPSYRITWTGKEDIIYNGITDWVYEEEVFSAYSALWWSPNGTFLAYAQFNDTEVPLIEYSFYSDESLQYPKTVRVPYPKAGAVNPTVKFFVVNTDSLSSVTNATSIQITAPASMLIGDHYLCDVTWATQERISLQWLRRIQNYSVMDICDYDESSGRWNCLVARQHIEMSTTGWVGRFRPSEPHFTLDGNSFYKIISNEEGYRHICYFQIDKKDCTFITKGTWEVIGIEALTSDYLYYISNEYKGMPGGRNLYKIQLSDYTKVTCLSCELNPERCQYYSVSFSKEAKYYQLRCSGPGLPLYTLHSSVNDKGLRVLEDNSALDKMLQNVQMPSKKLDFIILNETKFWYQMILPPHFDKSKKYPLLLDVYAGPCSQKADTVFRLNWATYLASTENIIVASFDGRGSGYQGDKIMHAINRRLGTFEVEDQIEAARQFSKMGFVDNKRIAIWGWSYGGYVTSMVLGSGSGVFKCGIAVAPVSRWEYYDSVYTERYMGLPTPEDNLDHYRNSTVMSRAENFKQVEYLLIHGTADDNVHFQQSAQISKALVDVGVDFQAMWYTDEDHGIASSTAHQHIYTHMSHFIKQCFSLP

In the case of `CC(C)[C@H](NC(=O)[C@H](C)NC(=O)[C@@H](NC(=O)c1ccccc1)C(C)(C)C)C(=O)C(=O)NCc1ccccc1` [Compound 38, N-{(S)-1-[(S)-1-((S)-1-Benzylaminooxalyl-2-methyl-propylcarbamoyl)-ethylcarbamoyl]-2,2-dimethyl-propyl}-benzamide], the Cmax in data set [1] (male, Sprague-Dawley, plasma, 5 mg/kg po, mean ± SE, n = 3) was 0.732 ± 0.003 µM. Also, in data set [1] (male, Sprague-Dawley, plasma, po, 5 mg/kg, 5 mg/kg po compared with 1 mg/kg iv, nonfasted Sprague–Dawley rats, mean ± SE, n = 3, read-out: F % (bioavailability)), the bioavailability stood at 33 ± 8%. Moreover, in data set [1] (5 mg/kg po), the “free conc Cmax” value is 0.029 ± 0 µM. Besides, the values for the inhibition at 10 µM in data set [2] and in data set [3] were 0% and 23%, respectively.
